“Also recorded” adds a separate entry of the source.
Columns and labels:
[1] = system: hypotensive effect of bradykinin (average arterial pressure) in Wistar rats; test: Bradykinin potentiation in vivo: hypotensive effect of bradykinin re-evaluated after TsHpt-I injection; parameters: species or system rat
Method: (§1) Wistar rats, weighting 300±20 g were used, waked or anesthetized, to assess the hypotensive properties of peptides. Bradykinin (Bachem, Co) and TsHpt-I were dissolved in sterile isotonic saline (0.9% NaCl) immediately before use.
(§2) “In vivo” experiments using waked animals: a day before the experiment, rats were anesthetized with ether and a polyethylene catheter (PE-10 connected to PE-50) was inserted into the abdominal aorta through the femoral artery for blood pressure measurements. For intravenous injections, a polyethylene cannula was implanted into the femoral vein. Arterial blood pressure and heart rate were monitored by a solid-state strain-gauge transducer. All variables were recorded continuously on a computer through a data acquisition system, Biopac®, and processed by the Acknowledge® software.
(§3) Bradykinin, 1 μg or 2 μg, was injected and the response measured as variation on average arterial pressure. Hypotensive effect of TsHpt-I (10 μg) alone was measured after Bradykinin. The hypotensive effect of bradykinin (1 μg) was then re-evaluated after 5 and 10 minutes following the injection of TsHpt-I.
“In vivo” experiments using anesthetized rats: the arterial blood pressure and heart rate were monitored continuously after insertion of catheters as described above. Rats were previously anesthetized with urethane, 1.2 mg/kg, (via i.p.).
The hypotensive effect of intravenous injections of bradykinin, 1 μg or 2 μg was measured, followed by the measurement of hypotensive effect of TsHpt-I (10 μg). The hypotensive effect of the bradykinin (1 μg) was then re-evaluated after 1, 5, 10, 15, 20 and 30 minutes.
The potentiating unit—i.e., the amount of peptide that is able to double the activity of a single dose of bradykinin—of TsHpt-I was 10 μg. At this dose TsHpt-I was able to double the activity of a single dose of bradykinin for almost 20 minutes in anesthetized animals.

[2] = system: arterial blood pressure of Wistar rats; test: Hypotensive activity of the peptide in biological assays on rats; format: in vivo, rat; conditions: native and synthetic peptide
Method: as §1, §2, §3
“In vivo” experiments using anesthetized rats: the arterial blood pressure and heart rate were monitored continuously after insertion of catheters as described above. Rats were previously anesthetized with urethane, […], (via i.p.). […]

In the case of “TsHpt-I (AEIDFSGIPEDIIKQIKETNAKPPA; listed as Tityus serrulatus)”, the “time for which TsHpt-I was able to double the activity of a single dose of bradykinin” value ([1]; TsHpt-I 10 μg, anesthetized animals (urethane)) is reported as about 20 min, the “potentiation of bradykinin effects (in words)” value ([1]; rat, in vivo) is reported as “able to potentiate bradykinin effects in a strong and long-lasting manner” and the “potentiating unit (amount of peptide that is able to double the activity of a single dose of bradykinin)” value ([1]; waked and anesthetized rats, intravenous injection, bradykinin 1 μg) is reported as 10 µg. The “hypotensive activity / ability to decrease blood pressure (in words)” value [2] was “strong ability to decrease blood pressure; also recorded: same hypotensive activity as the native molecule”.

From patent publication US7192925B2, “Scorpion peptide as hypotensive agent” (Universidade Federal de Minas Gerais, priority 2002, dated 2007)
